The test system of one series is LIM 1215 cells. Put plainly: Marker protein expression, ACAS confocal image cytometer. Type of series: cell-based, human. Also on record: key to Marker Protein Expression: CEA / Marker Protein Expression: Integrin β4 / Marker Protein Expression: Villin: increased expression (+); down-regulated (-); unchanged (0). The source says:
Additional confirmation of the importance of this seven amino-acid sequence was obtained by scoring for various marker proteins on the LIM 1215 cells. An ACAS confocal image cytometer was used to detect a number of markers on the cells without detaching the cells from the culture dish, as is normally done for fluorescence activated cell sorting (FACS) analysis. […] The expression of a number of other markers was unchanged (0) by treatment with EGF-β. Analogous to the previous results characterizing gross, observable morphology changes, neither EGF-α nor EGF-β/α changed the levels of these marker proteins, while EGF-α/β changed the expression of the marker proteins in a manner similar to that seen with EGF-β.

The next series has as its system Schwann cells. Briefly: Schwann cell proliferation (BrdU incorporation, NGFR staining). Type of series: cell-based, rat. Conditions: for percent of Schwann cells proliferating: BrdU for six hours after 24 h; for Schwann cell proliferation, comparison in words: versus EGF-β/α. The procedure:
The sciatic nerve from neonatal rats was used to generate a primary culture of Schwann cells. The cells were plated overnight in 10% serum without exposure to any growth factor. The following day, EGF-β, EGF-α/βand EGF-β/α were added at the concentrations in nanograms per milliliter(ng/ml) shown in Table 2, below. Twenty four hours later, BrdU was added to each test sample for six hours. BrdU is a thymidine analog which is incorporated into the DNA of dividing cells and can be detected by standard immunochemistry procedures. This agent thus provides a means for determining expansion of the total amount of DNA in a test sample and is a measure of whether cell proliferation has occurred. Upon the completion of the test period, Schwann cells were fixed and analyzed immunohistochemically. The cells were first stained for nerve growth factor receptor (NGFR), which is a known marker for Schwann cells in culture, followed by staining for BrdU. Cell counting was carried out as follows: in a given microscope field of view, all recognizable Schwann cells were counted, then the number of cells showing positive for BrdU staining were also counted. For each test sample (or well) two or three fields were counted, amounting to about 200 to 300 Schwann cells in all. The result is expressed in Table 2 as the percent of Schwann cells proliferating.
Background: Uptake of a labelled nucleoside into DNA is a usual measure of proliferation.

Series [1] concerns LIM 1215 human colon epithelial cells. Briefly: Crystal violet proliferation assay. Type of series: cell-based. Conditions: three days, low serum (0.05%) media, crystal violet absorbance at 595 nm. The text has this: FIG. 2. This figure is a graphical representation of the proliferative effect of the peptides of the invention on human colonic epithelial cells in vitro. These peptides are designated in the figure as EGF-β (SEQ ID NO: 2, above), represented by the closed circles, and as EGF-α/β (SEQ ID NO: 1, above), represented by the open circles. For comparison, two other peptides of equal length are included, designated as EGF-α and EGF-β/α, and represented by the closed squares and open squares, respectively. The latter two are homologs based on the EGF domain of extracellular NDF-heregulins and consist of the amino acid sequences shown further below in this text (SEQ ID NOS: 3 and 4, respectively). Proliferation is measured with a crystal violet dye which stains the cell protein and is indicative of cell number. […] The picomolar (pM) concentration of peptide used to treat the cells is shown on the horizontal axis.
a) Crystal Violet Proliferation Assay. The human colon epithelial cell line, LIM 1215 (Whitehead, R. H. et al., J. Natl. Cancer Inst. 4:759-765, 1985) was grown in RPMI-1640 media supplemented with 5% FBS, 1 μg/ml of hydrocortisone, 1 μg/ml of bovine insulin, 10 μM of alpha thioglycerol, and 1X PSG (0.292 mg/ml of 1-glutamine, 100 units/ml of penicillin G, and 100 μg/ml of streptomycin sulfate). At the start of the assay, the cells were 30% confluent and were proliferating rapidly. Cells were released by trypsin, washed with PBS, and seeded into 96-well plates at 5000 cells/well in low serum (0.05%) media (McCoy's-5A supplemented with 4 μg/ml of transferrin, 10 μg/ml of insulin, 10 mM of selenic acid, 4 nM of triiodothyronine, and 0.03% BSA). Dilutions of test peptide were added immediately on day zero; the total volume was 100 μl. Controls included no treatment and serial dilutions of FBS. The 96-well plates were then incubated for three days at 37° C. in a 5% CO2 atmosphere. The media were removed by aspiration and 30 μl of 2% crystal violet (Difco) in methanol was added to the cells for fifteen minutes of staining. Excess dye was washed away with distilled water. To each well 100 μl of 0.04N HCL in isopropanol was added and the dye was resolubilized by mixing. Absorbance was determined at 595 nm and the values were plotted as fold-stimulation over background (or no treatment).
b) Stimulation of colon cell proliferation. […] The chimeric peptides helped to pinpoint this determinant of activity to the seven residues corresponding to amino acids 222-228 of full length extracellular NDF/heregulin. […]

The test system is the same in series [2]. Put plainly: Morphogenic activity: fluorescent actin staining (NBD phalloidin), confocal microscope. The series is classed as cell-based. The following applies: 420 picomolar peptide, three days, serum-free media. How it is done:
c) Staining of LIM 1215 human colon cells with fluorescent dye. LIM 1215 cells were grown in RPMI-1640 media supplemented with 5% FBS, 1 μg/ml of bovine insulin, 10 μm of alpha thioglycerol, and 1× PSG. At the time of assay, the cells were more than 30% confluent and were proliferating rapidly. The cells were seeded into 24-well plates at 25,000 cells/well in serum-free media (McCoy's-5A, supplemented with 4 μg/ml of transferrin, 10 μg/ml of insulin, 10 mM of selenic acid, […], and 0.03% BSA). Test peptides were added at a concentration of 420 picomolar immediately on day zero; the total volume was 1.0 ml. Controls included no treatment and serial dilutions of FBS. The 24-well plates were then incubated for three days at 37° C. and 5% CO2, after which the media were removed by aspiration and the cells were washed in 1.0 ml of PBS with 0.5% BSA. All subsequent washings were performed with this buffer. The cells were then fixed in Orthopermeafix (Ortho Chemicals Co.) for thirty minutes at room temperature, and were washed twice. Then 200 μl of a 10 nM NBD phalloidin fluorescent dye solution in PBS were added and the cells were incubated in the dark (wrapped in aluminum foil) for thirty minutes at room temperature. The cells were washed twice, and inspected using a confocal microscope.
d) Morphogenic activity of peptides on colon epithelial cells. Upon treatment of LIM 1215 cells with the EGF-β peptide, it was evident that the morphology of the cells changed dramatically. […] In the absence of treatment, the cells appeared small and rounded. […] Because the cells were proliferating rapidly in 5% FBS serum-containing media (FIG. 3), the unique morphology caused by the EGF-β peptide could not have been due solely to its ability to stimulate proliferation. Moreover, the difference in morphogenic activities between EGF-β and EGF-α must have originated in the last sixteen amino acids of the C-terminus, as this is the only difference in sequence between the two peptides.
Further localization of morphogenic activity was obtained by use of the chimeric peptides, EGF-β/α and EGF-α/β. […] Again, the only difference in sequence between these two peptides is the last seven amino acids of the C-terminal portion.

A further series addresses endoproteinase Lys-C (Lysobacter enzymogenes, UniProt Q7M135). Put plainly: Digestion by endoproteinase Lys-C (peptide mapping). The following applies: cleavage at lysine residue at position 211. The text has this:
The initial studies referred to here utilized peptides based solely on sequences of the EGF-like domain of the aforementioned α2 and β1 forms of NDF/heregulin, that is to say, that portion of the extracellular protein from amino acid residue 177 to amino acid residue 228 (see FIG. 1 herein). […] The reason for this difference was not initially apparent. However, during peptide mapping studies of the EGF-like domains of NDF/heregulins, it was discovered that the α and β forms cleaved (degraded) at different rates when subjected to digestion by endoproteinase Lys-C. […] Moreover, this phenomenon seemed limited to the lysine residue at position 211. There was no apparent difference in the rate of cleavage between α and β at any other lysine residues in the N-terminal end of the EGF-like domain.

The mark [3] stands for this setting: peptide concentration 0.1 ng/ml.
Where [4] appears, read: peptide concentration 100 ng/ml.

The values that follow come from US5929032A, “Method for treating Schwann and colon cells in vitro” (Amgen Inc., priority 1996, dated 1999).

Entries after “also recorded” stand apart in the source; their conditions may differ.

endoproteinase Lys-C, sequence (Q7M135 whole entry, the tested form may be a part): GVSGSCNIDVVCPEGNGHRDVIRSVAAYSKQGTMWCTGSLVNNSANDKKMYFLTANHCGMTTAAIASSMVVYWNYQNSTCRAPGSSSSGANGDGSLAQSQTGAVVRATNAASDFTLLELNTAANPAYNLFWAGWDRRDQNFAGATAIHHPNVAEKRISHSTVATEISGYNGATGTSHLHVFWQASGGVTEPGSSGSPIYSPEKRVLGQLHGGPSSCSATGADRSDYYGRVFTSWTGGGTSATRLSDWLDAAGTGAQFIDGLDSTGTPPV

For “EGF-β/α: comparison chimeric 52-residue peptide SHLVK-(B)-TENVPMK; β177-221/α222-228 of extracellular NDF/heregulin (SHLVKCAEKEKTFCVNGGECFMVKDLSNPSRYLCKCPNEFTGDRCTENVPMK) [reference compound]”, the “Marker Protein Expression: CEA” value in the series with LIM 1215 cells is reported as 0. Further, in the series on LIM 1215 cells, the “Marker Protein Expression: Integrin β4” value was 0. Further, the “Marker Protein Expression: Villin” value with LIM 1215 cells amounted to 0. Moreover, the “percent of Schwann cells proliferating” value in the series on Schwann cells (setting [3]) came to 1%; with Schwann cells (peptide concentration 1 ng/ml) it was 2%; with Schwann cells (peptide concentration 10 ng/ml), 5%; in the series on Schwann cells (setting [4]), 10%. Further, the “proliferation of LIM 1215 cells (fold stimulation, FIG. 2)” value in series [1] is reported as “No effect was seen; also recorded: did not show any detectable effect”. For the same substance, the “morphological (morphogenic) changes of LIM 1215 cells” value (“morphological (morphogenic) changes” below) in series [2] is listed as “appear unchanged; also recorded: did not produce any noticeable change”.

As for “EGF-α: comparison 52-residue peptide SHLVK-(A)-TENVPMK; EGF-like domain (residues 177-228) of NDF/heregulin α2 (SHLVKCAEKEKTFCVNGGECFMVKDLSNPSRYLCKCQPGFTGARCTENVPMK) [reference compound]”, the “rate of cleavage by endoproteinase Lys-C” value with endoproteinase Lys-C is recorded as “faster enzymatic cleavage”. Also, in the series with LIM 1215 cells, the “Marker Protein Expression: CEA” value amounted to 0, the “Marker Protein Expression: Integrin β4” value amounted to 0 and the “Marker Protein Expression: Villin” value turned out to be 0. In addition, in series [1], the “proliferation of LIM 1215 cells (fold stimulation, FIG. 2)” value is recorded as “Some proliferation was obtained; also recorded: not as potent a mitogen”. In addition, the “morphological (morphogenic) changes” value in series [2] is given as “did not produce the same morphogenic changes”.

As to “EGF-β: 52-residue peptide SHLVK-(B)-QNYVMAS; EGF-like domain (residues 177-228) of NDF/heregulin β1 (SHLVKCAEKEKTFCVNGGECFMVKDLSNPSRYLCKCPNEFTGDRCQNYVMAS)”, the “rate of cleavage by endoproteinase Lys-C” value in the series with endoproteinase Lys-C is “more resistant to this enzyme and cleaved at a slower rate”. In the series on LIM 1215 cells, the “Marker Protein Expression: CEA” value is on record as “+”, the “Marker Protein Expression: Integrin β4” value is “+”, the “Marker Protein Expression: Villin” value was “-” and the “expression of a number of other markers” value was “unchanged”. Also, in the series on Schwann cells (setting [3]), the “percent of Schwann cells proliferating” value came out at 7.5%. The “percent of Schwann cells proliferating” value in the series on Schwann cells (peptide concentration 1 ng/ml) was determined as 13%. In addition, in the series with Schwann cells (peptide concentration 10 ng/ml), the “percent of Schwann cells proliferating” value worked out at 14%. In the series on Schwann cells (setting [4]), the “percent of Schwann cells proliferating” value is listed as 19%. Also, in the series on Schwann cells, the “Schwann cell proliferation, comparison in words” value was “stimulated the proliferation of Schwann cells to a significantly greater extent than EGF-β/α”. The “proliferation of LIM 1215 cells (fold stimulation, FIG. 2)” value in series [1] is reported as “best results for cell proliferation; also recorded: stimulated the proliferation of LIM 1215 cells”. In addition, the “morphological (morphogenic) changes” value in series [2] was “Evidence of cellular morphological changes is seen; also recorded: noticeable change in morphology, becoming enlarged and assuming a cobblestone-like appearance”.

Consider “EGF-α/β: chimeric 52-residue peptide SHLVK-(A)-QNYVMAS; α177-221/β222-228 of extracellular NDF/heregulin EGF-like domain (SHLVKCAEKEKTFCVNGGECFMVKDLSNPSRYLCKCQPGFTGARCQNYVMAS)”, for which, in the series with LIM 1215 cells, the “Marker Protein Expression: CEA” value was “+”. Also, the “Marker Protein Expression: Integrin β4” value with LIM 1215 cells is recorded as “+”. Also, the “Marker Protein Expression: Villin” value in the series on LIM 1215 cells was “-”. In addition, the “percent of Schwann cells proliferating” value in the series on Schwann cells (setting [3]) is on record as 1%; with Schwann cells (peptide concentration 1 ng/ml), 10%; with Schwann cells (peptide concentration 10 ng/ml), 10%; with Schwann cells (setting [4]), 17%. The “Schwann cell proliferation, comparison in words” value in the series on Schwann cells is “stimulated the proliferation of Schwann cells to a significantly greater extent than EGF-β/α”. The “proliferation of LIM 1215 cells (fold stimulation, FIG. 2)” value in series [1] is recorded as “best results for cell proliferation; also recorded: displayed significant mitogenic activity”. Also, in series [2], the “morphological (morphogenic) changes” value is “evidence of cell development and maturation is seen; also recorded: caused apparent morphogenic changes”.
